From patent US20210395327A1, “Growth Hormone-Releasing Hormone Antagonists and Uses Thereof” (United States Government As Represented By The Department …, priority 2019, published 2021) come the findings set out here.

The subject of one test is HT-29 colon cancer cells. The test can be described thus: In vitro cell viability, HT-29. The following applies: Table 3B; 5 μM for 72 H; MIA-602 = 1. In kind it is cell-based, human. How it is done:
(§1) The inhibitory effects of the various synthesized GHRH antagonists were tested in cell proliferation assays in various human cancer cell lines including stomach cancer (KATOIII, N87), colon cancer (HT-29), urothelial cancer (J82, RT4), pancreatic cancer (PANC-1, CFPAC-1), prostatic cancer (PC3), breast cancer (MX-1, HCC1806), ovarian cancer (SK-OV-3, OVCAR-3) and lung cancer (HCC827, H460).
(§2) Cell culture. Human cancer cell lines including pancreatic (PANC-1 and CFPAC-1), lung (HCC827 and H460), stomach (NCI-N87 and KATOIII), urothelial (J82, RT4), prostatic (PC3), breast (MX-1 and HCC 1806), colorectal (HT-29), and ovarian (SK-OV-3 and OVCAR-3) were obtained from the American Type Culture Collection (ATCC) and cultured at 37° C. in a humidified 95% air/5% CO2 atmosphere in the medium recommended by ATCC.
(§3) In vitro cell viability. Cell viability was analyzed as follows: cancer cells including pancreatic (PANC-1 and CFPAC-1), lung (HCC827 and H460), stomach (NCI-N87 and KATOIII), urothelial (J82, RT4), prostatic (PC3) and breast (MX-1 and HCC 1806), colorectal (HT-29) and ovarian (SK-OV-3 and OVCAR-3) were grown on 96 well plates to ˜60% confluence, the cells were starved for 24 h in culture medium containing 0.5% FBS. Cells were then treated with GHRH antagonists MIA602 AVR compounds at concentrations of 1, 2.5 or 5 μM, or vehicle (0.1% DMSO) in quintuplicates for 72 hours. The medium was replaced every 48 hours. Cell viability was measured using CellTiter 96 aqueous one solution kit (Promega). Inhibitory effects of tested AVR compounds in comparison to that of MIA602 are presented as inhibitory potency.
(§4) Inhibitory effects of selected AVR compounds in comparison to that of MIA602 are presented as inhibitory potency (e.g., percentage of inhibition). […] The cell lines tested including lung cancer HCC827 (FIG. 2A), pancreatic cancer CFPAC-1 (FIG. 2B), stomach cancer N87 (FIG. 2C), colon cancer HT-29 (FIG. 2D), breast cancers MX-1 and HCC1806 (FIGS. 2 E, F). Based on the results of cell proliferation assay after cancer cells were treated with antagonist at concentration of 5 μM for 72H, the relative inhibitory potency of AVR antagonists in comparison to MIA-602 is summarized in Table 3 A and B. Over 60 AVR compounds were tested in 12 cancer cell lines.
(§5) Based on the results of cell proliferation assay after cancer cells were treated with antagonist at concentration of 5 µM for 72H, * at concentration of 2 µM for 72 H.

Test [1] concerns NCI-N87 stomach cancer cells. The test can be described thus: In vitro cell viability (CellTiter 96), N87. The following applies: Table 3B; 5 μM for 72 H; MIA-602 = 1. In kind it is cell-based, human. Here is the method: as §1, §2, §3, §4, §5
The subject of test [2] is stomach cancer N87 xenograft. The test is described as follows: Xenograft tumor growth in nude mice, N87. Type of test: in vivo. The following applies: for % Inhibition: vs control. How it is done: (§6) The peptides' activity was compared with GHRH antagonist MIA-602. All statistical analyzses were performed from comparing GHRA antagonists to non-treated tumor (control).
(§7) Peptides and chemicals. GHRH antagonists MIA-602 and AVR-GHRH antagonists (see Table 2 above) were synthesized by solid phase methods and purified by HPLC. The peptides were dissolved in DMSO and further diluted in 10% 1,2-propanediol. The final concentration of peptides was 50 µg/ml in 10% 1,2-propanediol containing 0.1% of DMSO.
(§8) Cell culture. Human cancer cell lines including pancreatic (PANC-1 and CFPAC-1), lung (HCC827 and H460), stomach (NCI-N87), prostate (PC3), brest (MX-1 and HCC-1806), colorectal (HT-29), and ovarian (SK-OV-3 and OVCAR-3) were obtained from the American Type Culture Collection (ATCC) and cultured at 37° C. in a humidified 95% air/5% CO2 atmosphere in the medium recommended by ATCC.
Xenograft models of human cancers in nude mice. Female athymic (NCr nu/nu) nude mice, 5- to 6-weeks-old, obtained from the Envigo labs (Tampa, Fla.), were housed in laminar airflow cabinets under pathogen-free conditions with a 12-h light/12-h dark schedule, and were fed autoclaved standard chow and water. To generate mice with xenografted tumors, tumor xenografts were initiated by subcutaneous (s.c.) injection of 107 human cancer cells into female nude mice. After about 4 weeks the resulting tumors were dissected and collected after removing necrosis tissues. The tumors were then cut into particles with size of 3 mm3 and transplanted s.c. by trocar needle into experimental animals. When tumors grew to the size of 50-60 mm3 (by volume), […] of 5 μg of GHRH antagonists MIA-602 or AVR-compounds (2-10 μg as indicated), or vehicle solutions (0.1% DMSO in 10% 1,2-propanediol) respectively. Tumor sizes were measured weekly.
(§9) Statistical analysis. One-way ANOVA followed by Bonferroni comparison were performed. Data are expressed as Mean±SEM. To determine statistical significance between animal groups, two-tailed Student's t-test was conducted. Differences were considered significant when p<0.05.
(§10) Results. […] FIG. 1A-N represents in vivo inhibition of tumor growth during the treatment with GHRH antagonist MIA-602 and selected AVR antagonists in nude mice xenografted with various human tumors including pancreatic cancer PANC-1 (FIG. 1A) and CFPAC-1 (FIG. 1I); lung cancer HCC827 (FIGS. 1B, C) and H460 (FIG. 1H); stomach cancer N87 (FIGS. 1D-F); colon cancer HT-29 (FIG. 1G); breast cancer MX-1 and HCC-1806 (FIGS. 1J, K); ovarian cancer SK-OV-3 and OVACAR-3 (FIGS. 1 L, M) and prostate cancer PC3 (FIG. 1N). See also Table 5.

For test [3], the system named is lung cancer HCC827 xenograft. The test can be described thus: Xenograft tumor growth in nude mice, HCC827. In kind it is in vivo. The following applies: Table 4B, Lung Ca HCC827, 7 weeks, 5 μg/day s.c.; for % Inhibition: vs control. How it is done: as §6, §7, §8
Xenograft models of human cancers in nude mice. Female athymic (NCr nu/nu) nude mice, 5- to 6-weeks-old, obtained from the Envigo labs (Tampa, Fla.), were housed in laminar airflow cabinets under pathogen-free conditions with a 12-h light/12-h dark schedule, and were fed autoclaved standard chow and water. To generate mice with xenografted tumors, tumor xenografts were initiated by subcutaneous (s.c.) injection of 107 human cancer cells into female nude mice. After about 4 weeks the resulting tumors were dissected and collected after removing necrosis tissues. The tumors were then cut into particles with size of 3 mm3 and transplanted s.c. by trocar needle into experimental animals. When tumors grew to the size of 50-60 mm3 (by volume), mice were randomized into groups and treated daily for 4-8 weeks by subcutaneous administration of 5 μg of GHRH antagonists MIA-602 or AVR-compounds (2-10 μg as indicated), or vehicle solutions (0.1% DMSO in 10% 1,2-propanediol) respectively. Tumor sizes were measured weekly.
as §9, §10

Where [4] appears, read: Table 4D, Stomach Ca N87, 10 weeks, 2 μg/day s.c.
[5] abbreviates: Table 4E, Stomach Ca N87, 4 weeks, 2 μg/day s.c.
Setting [6] is: Table 4E, Stomach Ca N87, 4 weeks, 5 μg/day s.c.

Non-standard residues stand in square brackets, D forms with d. Residues, ends and D or L forms follow the SMILES beside them. *: point of attachment. Phenylacetyl(2,3,4,5,6-F5) = O=C(Cc1c(F)c(F)c(F)c(F)c1F)*; Phe(F5) = N[C@@H](Cc1c(F)c(F)c(F)c(F)c1F)C(=O)O; Phe(4-Cl) = N[C@@H](Cc1ccc(Cl)cc1)C(=O)O; hArg = N=C(N)NCCCC[C@H](N)C(=O)O; 12Ado = NCCCCCCCCCCCC(=O)O; Nle = CCCC[C@H](N)C(=O)O; Orn = NCCC[C@H](N)C(=O)O; Abu = CC[C@H](N)C(=O)O

Regarding `CCCC[C@H](NC(=O)[C@@H](NC(=O)[C@H](CC(=O)O)NC(=O)[C@H](CCC(N)=O)NC(=O)[C@H](CC(C)C)NC(=O)[C@H](CC(C)C)NC(=O)[C@H](CCCCN)NC(=O)[C@H](CCCNC(=N)N)NC(=O)[C@H](C)NC(=O)[C@H](CO)NC(=O)[C@H](CC(C)C)NC(=O)[C@H](CCC(N)=O)NC(=O)[C@H](CC)NC(=O)[C@H](CC(C)C)NC(=O)[C@@H](NC(=O)[C@H](CCCCN)NC(=O)[C@H](CCCNC(=N)N)NC(=O)[C@H](Cc1c(F)c(F)c(F)c(F)c1F)NC(=O)[C@H](CCCCNC(=N)N)NC(=O)[C@H](C)NC(=O)[C@@H](NC(=O)[C@H](Cc1ccc(Cl)cc1)NC(=O)[C@@H](NC(=O)[C@H](C)NC(=O)[C@H](CC(=O)O)NC(=O)[C@@H](CCCNC(=N)N)NC(=O)[C@H](Cc1ccc(O)cc1)NC(=O)CCCCCCCCCCCNC(=O)Cc1c(F)c(F)c(F)c(F)c1F)[C@@H](C)CC)[C@@H](C)O)C(C)C)[C@@H](C)CC)C(=O)N[C@H](CCCNC(=N)N)C(=O)N[C@@H](CCCCNC(=N)N)C(=O)NCCCCCCCCCCCC(=O)NC` [AVR-354] ({Phenylacetyl(2,3,4,5,6-F5)-12Ado}-Y[dR]DAI[Phe(4-Cl)]TA[hArg][Phe(F5)]RKVL[Abu]QLSARKLLQDI[Nle][dR][hArg][12Ado]-NHMe), the “In vitro relative inhibitory potency in comparison to MIA-602, HT-29” value in the test with HT-29 colon cancer cells amounted to 1.403.
For `CCCC[C@H](NC(=O)[C@@H](NC(=O)[C@H](CC(=O)O)NC(=O)[C@H](CCC(N)=O)NC(=O)[C@H](CC(C)C)NC(=O)[C@H](CC(C)C)NC(=O)[C@H](CCCCN)NC(=O)[C@H](CCCNC(=N)N)NC(=O)[C@H](C)NC(=O)[C@H](CO)NC(=O)[C@H](CC(C)C)NC(=O)[C@H](CCC(N)=O)NC(=O)[C@H](CC)NC(=O)[C@H](CC(C)C)NC(=O)[C@@H](NC(=O)[C@H](CCCCN)NC(=O)[C@H](CCCNC(=N)N)NC(=O)[C@H](Cc1ccc(OC)cc1)NC(=O)[C@H](CCCCNC(=N)N)NC(=O)[C@H](CC(N)=O)NC(=O)[C@@H](NC(=O)[C@H](Cc1ccc(Cl)cc1)NC(=O)[C@@H](NC(=O)[C@H](C)NC(=O)[C@H](CC(=O)O)NC(=O)[C@@H](CCCNC(=N)N)NC(=O)[C@H](Cc1ccc(O)cc1)NC(=O)CCCCCCCCCCCNC(=O)Cc1c(F)c(F)c(F)c(F)c1F)[C@@H](C)CC)[C@@H](C)O)C(C)C)[C@@H](C)CC)C(=O)N[C@H](CCCNC(=N)N)C(=O)N[C@@H](CCCCNC(=N)N)C(=O)NCCCCCCCCCCCC(N)=O` [AVR-333, 5FPhAC-Ada-Tyr-DArg-Asp-Ala-Ile-Cpa-Thr-Asn-Har-Tyr(Me)-Arg-Lys-Val-Leu-Abu-Gln-Leu-Ser-Ala-Arg-Lys-Leu-Leu-Gln-Asp-Ile-Nle-DArg-Har-Ada-NH2] ({Phenylacetyl(2,3,4,5,6-F5)-12Ado}-Y[dR]DAI[Phe(4-Cl)]TN[hArg]Y(Me)RKVL[Abu]QLSARKLLQDI[Nle][dR][hArg][12Ado]-NH2), in test [1], the “In vitro relative inhibitory potency in comparison to MIA-602, NCI-N87” value is 1.4. In test [2] (setting [4]), the “Tumor Size (mm^3)” value stood at 454.00 mm^3 and the “% Inhibition” value turned out to be 62.9%. Also, in test [3], the “Tumor Growth %” value is recorded as 407.5% and the “% Inhibition” value is 68.9%.
Take `CCCC[C@H](NC(=O)[C@@H](NC(=O)[C@H](CC(=O)O)NC(=O)[C@H](CCC(N)=O)NC(=O)[C@H](CC(C)C)NC(=O)[C@H](CC(C)C)NC(=O)[C@H](CCCN)NC(=O)[C@H](Cc1c[nH]cn1)NC(=O)[C@H](C)NC(=O)[C@H](CO)NC(=O)[C@H](CC(C)C)NC(=O)[C@H](CCC(N)=O)NC(=O)[C@H](CC)NC(=O)[C@H](CC(C)C)NC(=O)[C@@H](NC(=O)[C@H](CCCN)NC(=O)[C@H](Cc1c[nH]cn1)NC(=O)[C@H](Cc1ccc(OC)cc1)NC(=O)[C@H](CCCCNC(=N)N)NC(=O)[C@H](C)NC(=O)[C@@H](NC(=O)[C@H](Cc1c(F)c(F)c(F)c(F)c1F)NC(=O)[C@@H](NC(=O)[C@H](C)NC(=O)[C@H](CC(=O)O)NC(=O)[C@@H](CCCNC(=N)N)NC(=O)[C@H](Cc1ccc(O)cc1)NC(=O)CCCCCCCCCCCNC(=O)Cc1c(F)c(F)c(F)c(F)c1F)[C@@H](C)CC)[C@@H](C)O)C(C)C)[C@@H](C)CC)C(=O)N[C@H](CCCNC(=N)N)C(=O)N[C@@H](CCCCNC(=N)N)C(=O)NCCCCCCCCCCCC(N)=O` [AVR-553, 5FPhAC-Ada-Tyr-DArg-Asp-Ala-Ile-5FPhe-Thr-Ala-Har-Tyr(Me)-His-Orn-Val-Leu-Abu-Gln-Leu-Ser-Ala-His-Orn-Leu-Leu-Gln-Asp-Ile-Nle-DArg-Har-Ada-NH2] ({Phenylacetyl(2,3,4,5,6-F5)-12Ado}-Y[dR]DAI[Phe(F5)]TA[hArg]Y(Me)H[Orn]VL[Abu]QLSAH[Orn]LLQDI[Nle][dR][hArg][12Ado]-NH2): the “In vitro relative inhibitory potency in comparison to MIA-602, NCI-N87” value in test [1] is on record as 1.26. In addition, the entries for the “Tumor Growth %” value in test [2] (setting [5]), in test [2] (setting [6]) and in test [3] were 532.7%, 283.3% and 1132.0%, respectively. Besides, the “% Inhibition” value is on record as 40.3% in test [2] (setting [5]), 68.3% in test [2] (setting [6]) and 13.7% in test [3].
